The values that follow are results of earlier work, collected in patent US9925200B2, “Stable formulations of testosterone undecanoate” (Merck Sharp & Dohme B.V., priority 2014, dated 2018).

For orientation: Log P means the decadic logarithm of the partition coefficient of the neutral form, usually between octanol and water.

Assay in data set [1]: not given
The source holds these as a separate data set.

For `CCCCCCCCCCC(=O)O[C@H]1CC[C@H]2[C@@H]3CCC4=CC(=O)CC[C@]4(C)[C@H]3CC[C@]12C` [Testosterone undecanoate], the log partition coefficient (Log P) is listed as 9.1. For the same compound, the water solubility entry in data set [1] is given as “very low”.
